Source: ChEMBL document CHEMBL1152560, “Substituted 2-arylbenzothiazoles as kinase inhibitors: hit-to-lead optimization” (Bioorg Med Chem, 2009)

What was measured:
[1] = molecular target: Tyrosine-protein kinase ABL2 (Homo sapiens) (UniProt P42684); test: Residual activity of ABL2 at 0.1 uM by microplate scintillation counting
[2] = molecular target: Dual specificity mitogen-activated protein kinase kinase 1 (Homo sapiens) (UniProt Q02750); test: Residual activity of wild type MEK1 at 1 uM by microplate scintillation counting
Sequence of Dual specificity mitogen-activated protein kinase kinase 1 (Homo sapiens) (Q02750 whole entry): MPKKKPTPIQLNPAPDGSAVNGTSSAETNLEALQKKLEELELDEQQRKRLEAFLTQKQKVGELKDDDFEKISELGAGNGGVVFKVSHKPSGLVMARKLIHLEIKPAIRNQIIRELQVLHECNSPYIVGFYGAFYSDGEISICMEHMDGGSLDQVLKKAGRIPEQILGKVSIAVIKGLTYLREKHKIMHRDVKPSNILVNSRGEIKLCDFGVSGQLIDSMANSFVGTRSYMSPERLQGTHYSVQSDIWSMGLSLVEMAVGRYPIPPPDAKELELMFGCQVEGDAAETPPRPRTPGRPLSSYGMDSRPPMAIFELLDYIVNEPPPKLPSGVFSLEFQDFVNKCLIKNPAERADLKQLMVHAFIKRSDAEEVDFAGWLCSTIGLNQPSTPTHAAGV

[3] = molecular target: Death-associated protein kinase 1 (Homo sapiens) (UniProt P53355); test: Residual activity of DAPK1 at 1 uM by microplate scintillation counting
Sequence of Death-associated protein kinase 1 (Homo sapiens) (P53355 whole entry, looked up): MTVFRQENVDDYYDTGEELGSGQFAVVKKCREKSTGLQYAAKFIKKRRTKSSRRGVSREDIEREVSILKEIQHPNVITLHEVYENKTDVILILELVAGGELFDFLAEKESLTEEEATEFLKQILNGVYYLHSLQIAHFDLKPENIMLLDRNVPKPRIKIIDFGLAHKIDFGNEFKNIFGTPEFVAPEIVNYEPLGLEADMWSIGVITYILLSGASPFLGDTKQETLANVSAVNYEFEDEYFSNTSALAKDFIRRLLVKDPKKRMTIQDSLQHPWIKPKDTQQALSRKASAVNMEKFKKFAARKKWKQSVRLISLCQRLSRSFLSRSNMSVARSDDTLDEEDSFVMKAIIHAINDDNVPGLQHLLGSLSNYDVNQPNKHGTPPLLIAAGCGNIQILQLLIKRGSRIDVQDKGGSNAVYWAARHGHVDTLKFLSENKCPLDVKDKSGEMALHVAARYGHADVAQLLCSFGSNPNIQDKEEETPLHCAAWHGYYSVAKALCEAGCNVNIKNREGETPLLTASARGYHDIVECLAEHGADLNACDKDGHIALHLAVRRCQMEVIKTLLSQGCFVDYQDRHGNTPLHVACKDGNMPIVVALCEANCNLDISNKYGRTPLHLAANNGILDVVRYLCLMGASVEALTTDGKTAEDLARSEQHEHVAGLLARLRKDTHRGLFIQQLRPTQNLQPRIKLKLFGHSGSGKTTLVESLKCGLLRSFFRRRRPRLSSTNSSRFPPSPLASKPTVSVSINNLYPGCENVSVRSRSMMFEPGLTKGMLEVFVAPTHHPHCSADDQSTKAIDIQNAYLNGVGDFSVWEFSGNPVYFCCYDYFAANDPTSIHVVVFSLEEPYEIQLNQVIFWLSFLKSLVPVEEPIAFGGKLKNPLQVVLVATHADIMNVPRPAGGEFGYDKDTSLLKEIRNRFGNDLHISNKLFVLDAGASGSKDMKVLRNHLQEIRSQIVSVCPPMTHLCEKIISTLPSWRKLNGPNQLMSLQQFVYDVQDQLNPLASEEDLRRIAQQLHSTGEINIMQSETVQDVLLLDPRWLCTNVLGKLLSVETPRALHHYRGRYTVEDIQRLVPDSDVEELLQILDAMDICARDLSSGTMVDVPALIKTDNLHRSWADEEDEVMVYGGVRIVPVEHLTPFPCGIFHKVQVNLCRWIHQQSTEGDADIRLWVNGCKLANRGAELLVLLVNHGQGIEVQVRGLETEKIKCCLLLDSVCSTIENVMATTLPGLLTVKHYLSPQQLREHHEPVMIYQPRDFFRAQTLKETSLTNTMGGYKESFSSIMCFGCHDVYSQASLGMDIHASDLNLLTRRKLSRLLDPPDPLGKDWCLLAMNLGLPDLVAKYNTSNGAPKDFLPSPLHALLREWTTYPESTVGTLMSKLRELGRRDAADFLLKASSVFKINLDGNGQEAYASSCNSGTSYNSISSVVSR

[4] = molecular target: T1, Serine/threonine-protein kinase Nek11 (Homo sapiens) (UniProt Q8NG66); test: Residual activity of NEK11 at 1 uM by microplate scintillation counting
T1 sequence (whole entry): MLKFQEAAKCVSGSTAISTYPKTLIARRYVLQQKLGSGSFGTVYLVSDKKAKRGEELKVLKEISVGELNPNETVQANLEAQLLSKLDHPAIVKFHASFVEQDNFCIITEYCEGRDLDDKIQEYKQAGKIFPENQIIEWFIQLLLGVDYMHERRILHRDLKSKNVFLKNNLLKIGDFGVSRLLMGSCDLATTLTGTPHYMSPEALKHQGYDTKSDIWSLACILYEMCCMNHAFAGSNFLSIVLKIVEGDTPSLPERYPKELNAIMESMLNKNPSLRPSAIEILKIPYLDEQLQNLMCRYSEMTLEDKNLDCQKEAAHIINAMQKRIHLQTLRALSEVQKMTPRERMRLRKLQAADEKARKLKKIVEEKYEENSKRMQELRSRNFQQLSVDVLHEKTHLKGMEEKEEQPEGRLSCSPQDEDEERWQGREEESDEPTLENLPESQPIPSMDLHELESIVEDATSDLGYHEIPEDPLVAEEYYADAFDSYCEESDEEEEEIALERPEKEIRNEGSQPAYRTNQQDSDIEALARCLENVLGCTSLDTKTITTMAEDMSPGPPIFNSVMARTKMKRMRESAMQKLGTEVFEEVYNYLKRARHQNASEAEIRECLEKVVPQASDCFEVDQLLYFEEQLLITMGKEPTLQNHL

[5] = molecular target: Serine/threonine-protein kinase 33 (Homo sapiens) (UniProt Q9BYT3); test: Residual activity of STK33 at 10 uM by microplate scintillation counting
Sequence of Serine/threonine-protein kinase 33 (Homo sapiens) (Q9BYT3 whole entry, looked up): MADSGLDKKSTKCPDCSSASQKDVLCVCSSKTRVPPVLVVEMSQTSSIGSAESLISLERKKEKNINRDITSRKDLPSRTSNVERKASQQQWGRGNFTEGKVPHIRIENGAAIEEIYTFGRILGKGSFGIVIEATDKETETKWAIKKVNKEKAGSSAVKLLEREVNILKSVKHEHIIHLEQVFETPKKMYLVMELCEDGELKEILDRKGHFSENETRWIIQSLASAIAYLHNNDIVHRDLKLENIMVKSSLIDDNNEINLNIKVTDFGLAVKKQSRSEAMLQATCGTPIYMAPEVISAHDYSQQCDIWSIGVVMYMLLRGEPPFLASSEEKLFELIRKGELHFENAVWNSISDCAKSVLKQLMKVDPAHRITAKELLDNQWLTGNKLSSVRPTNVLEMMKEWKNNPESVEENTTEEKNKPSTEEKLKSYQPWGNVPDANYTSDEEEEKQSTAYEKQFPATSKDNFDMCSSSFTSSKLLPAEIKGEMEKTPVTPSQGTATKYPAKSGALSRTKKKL

[6] = molecular target: T2, Serine/threonine-protein kinase D1 (Homo sapiens) (UniProt Q15139); test: Residual activity of PKCmu at 1 uM by microplate scintillation counting
T2 sequence (whole entry): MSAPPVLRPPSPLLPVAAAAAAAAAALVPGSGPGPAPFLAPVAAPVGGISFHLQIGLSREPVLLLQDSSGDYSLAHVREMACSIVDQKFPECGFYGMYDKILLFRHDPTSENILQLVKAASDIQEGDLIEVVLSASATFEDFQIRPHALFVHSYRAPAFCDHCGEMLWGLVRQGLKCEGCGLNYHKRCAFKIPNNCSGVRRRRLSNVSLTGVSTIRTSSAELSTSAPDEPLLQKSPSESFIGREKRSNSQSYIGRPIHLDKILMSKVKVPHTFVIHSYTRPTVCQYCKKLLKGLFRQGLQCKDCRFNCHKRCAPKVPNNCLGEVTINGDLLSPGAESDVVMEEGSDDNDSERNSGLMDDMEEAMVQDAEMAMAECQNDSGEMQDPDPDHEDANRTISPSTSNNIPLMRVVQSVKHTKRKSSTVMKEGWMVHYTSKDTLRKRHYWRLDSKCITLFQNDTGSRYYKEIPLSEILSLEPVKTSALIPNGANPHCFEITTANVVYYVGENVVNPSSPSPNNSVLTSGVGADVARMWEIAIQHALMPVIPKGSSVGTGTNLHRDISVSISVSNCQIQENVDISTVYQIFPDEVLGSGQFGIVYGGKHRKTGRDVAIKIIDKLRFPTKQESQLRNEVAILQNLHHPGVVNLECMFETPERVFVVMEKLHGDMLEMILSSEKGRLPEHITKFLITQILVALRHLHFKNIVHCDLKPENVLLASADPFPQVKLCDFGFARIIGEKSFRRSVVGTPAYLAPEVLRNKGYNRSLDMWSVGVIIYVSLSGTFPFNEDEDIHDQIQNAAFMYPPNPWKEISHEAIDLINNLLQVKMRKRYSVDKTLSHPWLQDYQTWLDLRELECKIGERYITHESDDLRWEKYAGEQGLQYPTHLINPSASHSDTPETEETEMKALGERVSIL

[7] = molecular target: T3, Interleukin-1 receptor-associated kinase 4 (Homo sapiens) (UniProt Q9NWZ3); test: Residual activity of IRAK4 at 1 uM by microplate scintillation counting
T3 sequence (whole entry): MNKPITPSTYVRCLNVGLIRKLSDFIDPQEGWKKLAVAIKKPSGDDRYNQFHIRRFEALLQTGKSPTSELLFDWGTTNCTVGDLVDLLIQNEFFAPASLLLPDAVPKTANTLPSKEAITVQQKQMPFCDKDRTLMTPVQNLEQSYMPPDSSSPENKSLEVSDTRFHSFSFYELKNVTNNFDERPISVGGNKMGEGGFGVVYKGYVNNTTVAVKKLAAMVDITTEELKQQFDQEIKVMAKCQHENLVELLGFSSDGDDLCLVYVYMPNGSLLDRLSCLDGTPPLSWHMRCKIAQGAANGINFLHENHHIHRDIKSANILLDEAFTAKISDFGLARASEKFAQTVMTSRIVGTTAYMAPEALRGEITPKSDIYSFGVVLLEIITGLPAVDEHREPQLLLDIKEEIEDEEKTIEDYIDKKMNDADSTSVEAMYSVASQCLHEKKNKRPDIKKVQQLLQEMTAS

Sequence of Tyrosine-protein kinase ABL2 (Homo sapiens) (P42684 whole entry): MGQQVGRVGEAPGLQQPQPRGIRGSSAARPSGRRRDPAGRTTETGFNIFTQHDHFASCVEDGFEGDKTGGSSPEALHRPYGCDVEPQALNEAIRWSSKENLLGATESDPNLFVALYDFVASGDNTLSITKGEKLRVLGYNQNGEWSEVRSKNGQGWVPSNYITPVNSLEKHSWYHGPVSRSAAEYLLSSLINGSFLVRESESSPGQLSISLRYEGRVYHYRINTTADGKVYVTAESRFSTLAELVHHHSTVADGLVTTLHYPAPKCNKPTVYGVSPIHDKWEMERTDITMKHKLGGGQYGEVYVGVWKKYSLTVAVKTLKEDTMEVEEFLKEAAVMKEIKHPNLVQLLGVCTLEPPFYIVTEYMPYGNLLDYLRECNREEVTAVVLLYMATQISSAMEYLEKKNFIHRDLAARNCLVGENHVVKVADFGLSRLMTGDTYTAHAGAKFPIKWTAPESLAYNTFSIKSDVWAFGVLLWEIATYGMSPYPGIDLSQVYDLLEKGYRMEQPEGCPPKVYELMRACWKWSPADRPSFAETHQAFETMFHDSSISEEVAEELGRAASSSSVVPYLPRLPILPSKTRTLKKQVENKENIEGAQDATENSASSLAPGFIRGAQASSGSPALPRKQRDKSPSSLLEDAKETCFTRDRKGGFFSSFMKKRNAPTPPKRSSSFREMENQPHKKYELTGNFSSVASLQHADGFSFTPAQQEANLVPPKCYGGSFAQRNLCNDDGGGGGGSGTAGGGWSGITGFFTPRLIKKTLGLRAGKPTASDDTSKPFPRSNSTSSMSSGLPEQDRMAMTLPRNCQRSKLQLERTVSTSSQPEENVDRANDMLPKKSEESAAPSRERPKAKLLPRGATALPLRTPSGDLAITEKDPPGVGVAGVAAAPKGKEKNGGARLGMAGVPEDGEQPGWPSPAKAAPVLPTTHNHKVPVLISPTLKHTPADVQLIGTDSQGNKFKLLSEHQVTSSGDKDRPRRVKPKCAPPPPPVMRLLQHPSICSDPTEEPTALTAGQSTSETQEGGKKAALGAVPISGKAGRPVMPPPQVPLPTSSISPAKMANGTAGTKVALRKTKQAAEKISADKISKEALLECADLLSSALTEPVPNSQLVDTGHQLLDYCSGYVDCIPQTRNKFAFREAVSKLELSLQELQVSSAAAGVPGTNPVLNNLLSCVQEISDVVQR

residual activity [1] [%]	residual activity [2] [%]	residual activity [4] [%]	residual activity [5] [%]	residual activity [6] [%]	residual activity [7] [%]	Structure (SMILES)	residual activity [3] [%]
116	59	91	107	100	90	COc1cc2c(Oc3ccc(-c4nc5ccccc5s4)cc3)ncnc2cc1OCCCN1CCCC1	86
96	52	93	94	89	97	COc1cc2c(Oc3ccc(-c4nc5ccccc5s4)cc3F)ncnc2cc1OCCCN1CCN(C)CC1	90
100	53	104	81	89	91	COc1cc2c(Oc3ccc(-c4nc5ccccc5s4)cc3)ncnc2cc1OCCCN1CCN(C)CC1	81
